These results are taken from US7405307B2, “Biphenylcarboxamides useful as lipid lowering agents” (Janssen Pharmaceutica N.V., priority 2000, dated 2008).

Structures are written as SMILES.

Tested on in one data set: not given
Assay: not given
Settings: not given
What is called melting point is the temperature, or range, at which the solid turns liquid. For `COC(=O)C(NC/C=C/c1ccc(NC(=O)c2ccccc2-c2ccc(C(F)(F)F)cc2)cc1)c1ccccc1` (stereo not shown) [Compound 137], the melting point amounted to 142 °C.

In the next data set the test system is ApoB secretion, HepG2 cells. In words: Quantification of the secretion of ApoB. As to conditions: Homo sapiens, 24 hours of incubation with test compound, apoB immunoprecipitation, read-out: pIC50 values (= −log IC50 value) (converted). The format is cell-based. The method, then: C. Pharmacological Examples C.1. Quantification of the Secretion of ApoB.
HepG2 cells were cultured in 24-well plates in MEM Rega 3 containing 10% fetal calf serum. At 70% confluency, the medium was changed and the test compound or carrier (DMSO, 0.4% final concentration) was added. After 24 hours of incubation, the medium was transferred to Eppendorf tubes and cleared by centrifugation. A sheep antibody directed against either apoB was added to the supernatant and the mixture was kept at 8° C. for 24 hours. Then, rabbit anti-sheep antibody was added and the immune complex was allowed to precipitate for 24 hours at 8° C. The immunoprecipitate was pelleted by centrifugation for 25 minutes at 1320 g and washed twice with a buffer containing 40 mM Mops, 40 mM NaH2PO4, 100 mM NaF, 0.2 mM DTT, 5 mM EDTA, 5 mM EGTA, 1% Triton-X-100, 0.5% sodium deoxycholate (DOC), 0.1% SDS, 0.2 μM leupeptin and 0.2 μM PMSF. Radioactivity in the pellet was quantified by liquid scintillation counting.
Resulting IC50 values are enumerated in Table C.1
A word on the IC50: it is the midpoint of a concentration-inhibition curve. With `COC(=O)C(NCCNc1ccc(NC(=O)c2ccccc2-c2ccc(C(F)(F)F)cc2)cc1)c1ccccc1` (stereo not shown) [Compound 1], the IC50 is 71 nM.

For `COC(=O)C(NCCCNc1ccc(NC(=O)c2ccccc2-c2ccc(C(F)(F)F)cc2)cc1)c1ccccc1` (stereo not shown) [Compound 2], the half-inhibitory concentration (IC50) is 317 nM.

For the compound `COC(=O)C(c1ccccc1)N(C)CCCN(C)c1ccc(NC(=O)c2ccccc2-c2ccc(C(F)(F)F)cc2)cc1` (stereo not shown) [Compound 3], the IC50 was 766 nM.

`COC(=O)C(c1ccccc1)N(C)CCN(C)c1ccc(NC(=O)c2ccccc2-c2ccc(C(F)(F)F)cc2)cc1` (stereo not shown) [Compound 4]: the IC50 was 98.4 nM.

In the case of `COC(=O)C(NCC(C)(C)CNc1ccc(NC(=O)c2ccccc2-c2ccc(C(F)(F)F)cc2)cc1)c1ccccc1` (stereo not shown) [Compound 5], the IC50 was 1020 nM.

As to `COC(=O)C(NC1CCC(Nc2ccc(NC(=O)c3ccccc3-c3ccc(C(F)(F)F)cc3)cc2)CC1)c1ccccc1` (stereo not shown) [Compound 6], the IC50 was 2070 nM.

With `CCOC(=O)C(NCCNc1ccc(NC(=O)c2ccccc2-c2ccc(C(F)(F)F)cc2)cc1)c1ccccc1` (stereo not shown) [Compound 7], the IC50 is 330 nM.

Consider `CCOC(=O)C(NCCCNc1ccc(NC(=O)c2ccccc2-c2ccc(C(F)(F)F)cc2)cc1)c1ccccc1` (stereo not shown) [Compound 8], for which the IC50 was 129 nM.

Consider `CCOC(=O)C(c1ccccc1)N(C)CCN(C)c1ccc(NC(=O)c2ccccc2-c2ccc(C(F)(F)F)cc2)cc1` (stereo not shown) [Compound 9], for which the 50% inhibitory concentration (IC50) is 566 nM.

In the case of `CCOC(=O)C(NCC(C)(C)CNc1ccc(NC(=O)c2ccccc2-c2ccc(C(F)(F)F)cc2)cc1)c1ccccc1` (stereo not shown) [Compound 10], the IC50 is 948 nM.

Turning to `CCOC(=O)C(NC1CCC(Nc2ccc(NC(=O)c3ccccc3-c3ccc(C(F)(F)F)cc3)cc2)CC1)c1ccccc1` (stereo not shown) [Compound 11], the IC50 is 1370 nM.

Take `CCCOC(=O)C(NCCNc1ccc(NC(=O)c2ccccc2-c2ccc(C(F)(F)F)cc2)cc1)c1ccccc1` (stereo not shown) [Compound 12]: the IC50 was 689 nM.

As to `CCCOC(=O)C(NCCCNc1ccc(NC(=O)c2ccccc2-c2ccc(C(F)(F)F)cc2)cc1)c1ccccc1` (stereo not shown) [Compound 13], the IC50 is 488 nM.

For `CCCOC(=O)C(c1ccccc1)N(C)CCCN(C)c1ccc(NC(=O)c2ccccc2-c2ccc(C(F)(F)F)cc2)cc1` (stereo not shown) [Compound 14], the concentration for half-maximal inhibition (IC50) is 938 nM.

`CCCOC(=O)C(c1ccccc1)N(C)CCN(C)c1ccc(NC(=O)c2ccccc2-c2ccc(C(F)(F)F)cc2)cc1` (stereo not shown) [Compound 15]: the IC50 is 757 nM.

As for `CCCOC(=O)C(NCC(C)(C)CNc1ccc(NC(=O)c2ccccc2-c2ccc(C(F)(F)F)cc2)cc1)c1ccccc1` (stereo not shown) [Compound 16], the IC50 is 1260 nM.

As for `CCCOC(=O)C(NC1CCC(Nc2ccc(NC(=O)c3ccccc3-c3ccc(C(F)(F)F)cc3)cc2)CC1)c1ccccc1` (stereo not shown) [Compound 17], the IC50 was 809 nM.

Turning to `CCNC(=O)C(NCCNc1ccc(NC(=O)c2ccccc2-c2ccc(C(F)(F)F)cc2)cc1)c1ccccc1` (stereo not shown) [Compound 18], the half-maximal inhibitory concentration (IC50) was less than 30 nM.

Turning to `CCNC(=O)C(NCCCNc1ccc(NC(=O)c2ccccc2-c2ccc(C(F)(F)F)cc2)cc1)c1ccccc1` (stereo not shown) [Compound 19], the IC50 is 229 nM.

Consider `CCNC(=O)C(c1ccccc1)N(C)CCCN(C)c1ccc(NC(=O)c2ccccc2-c2ccc(C(F)(F)F)cc2)cc1` (stereo not shown) [Compound 20], for which the IC50 is 1930 nM.

For `CCNC(=O)C(c1ccccc1)N(C)CCN(C)c1ccc(NC(=O)c2ccccc2-c2ccc(C(F)(F)F)cc2)cc1` (stereo not shown) [Compound 21], the IC50 was 506 nM.

As for `CCNC(=O)C(NCC(C)(C)CNc1ccc(NC(=O)c2ccccc2-c2ccc(C(F)(F)F)cc2)cc1)c1ccccc1` (stereo not shown) [Compound 22], the IC50 was 1030 nM.

In the case of `CCNC(=O)C(NC1CCC(Nc2ccc(NC(=O)c3ccccc3-c3ccc(C(F)(F)F)cc3)cc2)CC1)c1ccccc1` (stereo not shown) [Compound 23], the IC50 is 1570 nM.

With `CCCNC(=O)C(NCCNc1ccc(NC(=O)c2ccccc2-c2ccc(C(F)(F)F)cc2)cc1)c1ccccc1` (stereo not shown) [Compound 24], the IC50 was 171 nM.

In the case of `CCCNC(=O)C(NCCCNc1ccc(NC(=O)c2ccccc2-c2ccc(C(F)(F)F)cc2)cc1)c1ccccc1` (stereo not shown) [Compound 25], the IC50 is 948 nM.

With `CCCNC(=O)C(c1ccccc1)N(C)CCCN(C)c1ccc(NC(=O)c2ccccc2-c2ccc(C(F)(F)F)cc2)cc1` (stereo not shown) [Compound 26], the 50% inhibitory concentration (IC50) is 1970 nM.

Consider `CCCNC(=O)C(c1ccccc1)N(C)CCN(C)c1ccc(NC(=O)c2ccccc2-c2ccc(C(F)(F)F)cc2)cc1` (stereo not shown) [Compound 27], for which the half-maximal inhibitory concentration (IC50) was 625 nM.

`CCCNC(=O)C(NCC(C)(C)CNc1ccc(NC(=O)c2ccccc2-c2ccc(C(F)(F)F)cc2)cc1)c1ccccc1` (stereo not shown) [Compound 28]: the IC50 was 1490 nM.

Turning to `CCCNC(=O)C(NC1CCC(Nc2ccc(NC(=O)c3ccccc3-c3ccc(C(F)(F)F)cc3)cc2)CC1)c1ccccc1` (stereo not shown) [Compound 29], the IC50 was 753 nM.

Take `COC(=O)C(NC1CCN(c2ccc(NC(=O)c3ccccc3-c3ccc(C(F)(F)F)cc3)cc2)CC1)c1ccccc1` (stereo not shown) [Compound 98]: the half-inhibitory concentration (IC50) was 1580 nM.

As for `COC(=O)C(c1ccccc1)N(C)C1CCN(c2ccc(NC(=O)c3ccccc3-c3ccc(C(F)(F)F)cc3)cc2)C1` (stereo not shown) [Compound 100], the IC50 was 41.7 nM.

Take `COC(=O)C(NC1CCN(c2ccc(NC(=O)c3ccccc3-c3ccc(C(F)(F)F)cc3)cc2)C1)c1ccccc1` (stereo not shown) [Compound 101]: the IC50 is 40.9 nM.

Regarding `CCOC(=O)C(c1ccccc1)N1CCC(Nc2ccc(NC(=O)c3ccccc3-c3ccc(C(F)(F)F)cc3)cc2)CC1` (stereo not shown) [Compound 102], the IC50 was more than 3000 nM.

On to `CCOC(=O)C(NC1CCN(c2ccc(NC(=O)c3ccccc3-c3ccc(C(F)(F)F)cc3)cc2)CC1)c1ccccc1` (stereo not shown) [Compound 103], for which the IC50 is 1600 nM.

As for `CCOC(=O)C(c1ccccc1)N(C)C1CCN(c2ccc(NC(=O)c3ccccc3-c3ccc(C(F)(F)F)cc3)cc2)C1` (stereo not shown) [Compound 104], the IC50 is less than 30 nM.

Consider `CCOC(=O)C(NC1CCN(c2ccc(NC(=O)c3ccccc3-c3ccc(C(F)(F)F)cc3)cc2)C1)c1ccccc1` (stereo not shown) [Compound 105], for which the IC50 was 183 nM.

As for `CCCOC(=O)C(c1ccccc1)N1CCC(Nc2ccc(NC(=O)c3ccccc3-c3ccc(C(F)(F)F)cc3)cc2)CC1` (stereo not shown) [Compound 106], the IC50 is 3000 nM.

For the compound `CCCOC(=O)C(NC1CCN(c2ccc(NC(=O)c3ccccc3-c3ccc(C(F)(F)F)cc3)cc2)CC1)c1ccccc1` (stereo not shown) [Compound 107], the IC50 was 1570 nM.

For the compound `CCCOC(=O)C(c1ccccc1)N(C)C1CCN(c2ccc(NC(=O)c3ccccc3-c3ccc(C(F)(F)F)cc3)cc2)C1` (stereo not shown) [Compound 108], the IC50 is 69 nM.

`CCCOC(=O)C(NC1CCN(c2ccc(NC(=O)c3ccccc3-c3ccc(C(F)(F)F)cc3)cc2)C1)c1ccccc1` (stereo not shown) [Compound 109]: the concentration for half-maximal inhibition (IC50) was 150 nM.

Turning to `CCNC(=O)C(c1ccccc1)N1CCC(Nc2ccc(NC(=O)c3ccccc3-c3ccc(C(F)(F)F)cc3)cc2)CC1` (stereo not shown) [Compound 110], the IC50 is 1170 nM.

Turning to `CCNC(=O)C(NC1CCN(c2ccc(NC(=O)c3ccccc3-c3ccc(C(F)(F)F)cc3)cc2)CC1)c1ccccc1` (stereo not shown) [Compound 111], the IC50 is 348 nM.

In the case of `CCNC(=O)C(c1ccccc1)N(C)C1CCN(c2ccc(NC(=O)c3ccccc3-c3ccc(C(F)(F)F)cc3)cc2)C1` (stereo not shown) [Compound 112], the IC50 was 39.4 nM.

Take `CCNC(=O)C(NC1CCN(c2ccc(NC(=O)c3ccccc3-c3ccc(C(F)(F)F)cc3)cc2)C1)c1ccccc1` (stereo not shown) [Compound 113]: the IC50 is 10.7 nM.

Regarding `CCCNC(=O)C(c1ccccc1)N1CCC(Nc2ccc(NC(=O)c3ccccc3-c3ccc(C(F)(F)F)cc3)cc2)CC1` (stereo not shown) [Compound 114], the half-maximal inhibitory concentration (IC50) is 2610 nM.

In the case of `CCCNC(=O)C(NC1CCN(c2ccc(NC(=O)c3ccccc3-c3ccc(C(F)(F)F)cc3)cc2)CC1)c1ccccc1` (stereo not shown) [Compound 115], the IC50 is 948 nM.

`CCCNC(=O)C(c1ccccc1)N(C)C1CCN(c2ccc(NC(=O)c3ccccc3-c3ccc(C(F)(F)F)cc3)cc2)C1` (stereo not shown) [Compound 116]: the IC50 is 94.8 nM.

Regarding `CCCNC(=O)C(NC1CCN(c2ccc(NC(=O)c3ccccc3-c3ccc(C(F)(F)F)cc3)cc2)C1)c1ccccc1` (stereo not shown) [Compound 117], the IC50 was less than 30 nM.
